The values below come from patent US6822140B2, “Compositions and methods for fumonisin detoxification” (Pioneer Hi-Bred International, Inc., priority 1999, dated 2004).

One data set relates to BMS cells. Briefly: Effect of FB1 and AP1 on growth of maize tissue cultured cells (Black Mexican Sweet, BMS). The format is cell-based. The conditions noted are these: for concentration at which growth of BMS cells was inhibited: 1 week, liquid culture, compared to water control wells. The protocol:
FB1 or AP1 at various concentrations was added to suspensions of BMS cells growing in liquid culture medium in 96-well polystyrene plates. After 1 week the cell density in wells was observed under low power magnification and growth of toxin-treated wells was compared to control wells that received water. […] This represents an approximate 100-fold difference in toxicity to maize tissue-cultured cells. […] AP1 was not tested in that study, however.

The next data set deals with Lemna tissues. As to conditions: Vesonder et al. (1992); cited from earlier work.
A further data set deals with tomato. The conditions noted are these: Lamprecht et al. (1994); cited from earlier work.
In another data set the test system is Maize coleoptiles. Briefly: Effect of FB1 and AP1 on maize coleoptiles (injury evaluation). Further details: key to Injury or lack thereof of maize coleoptiles: + = brown necrotic discoloration of coleoptile; − = no symptoms (same as water control). As to conditions: for Injury or lack thereof of maize coleoptiles: 2 days dark at 28° C. then 3 days light. The protocol:
Maize coleoptiles from 4 day dark-grown germinated maize seeds were excised above the growing point and placed in 96-well microliter plates in the presence of 60 microliters of sterile distilled water containing FB1 or AP1 at approximately equimolar concentrations of 1.5, 0.5, 0.15, 0.05, 0.015, 0.005, 0.0015, or 0.0005 millimolar, along with water controls. After 2 days in the dark at 28° C. the coleoptiles were placed in the light and incubated another 3 days.

In another data set the test system is maize callus. The conditions noted are these: solid medium; Van Asch et al. (1992); cited from earlier work.

`CCCC[C@@H](C)[C@@H](O)[C@@H](O)C[C@@H](C)C[C@H](O)CCCC[C@@H](O)C[C@H](O)[C@H](C)N` [AP1]: in the data set on BMS cells, the “concentration at which growth of BMS cells was inhibited” value came to 40000 nM. The “difference in toxicity to maize tissue-cultured cells (FB1 vs AP1)” value in the data set on BMS cells (AP1 less toxic than FB1) is recorded as around 100 fold. In addition, in the data set with Lemna tissues, the “AP1 less toxic (than FB1) in Lemna tissues” value was “approximately 40 fold”. Besides, in the data set with tomato, the “reduction in toxicity to tomato by AP1 versus FB1” value is around 100 fold. Further, the “Injury or lack thereof of maize coleoptiles” value (“Injury or lack thereof” for short) with Maize coleoptiles (1.5 mM) was “+”; with Maize coleoptiles (.0005 mM), “−”; in the data set with Maize coleoptiles (.0015 mM), “−”; with Maize coleoptiles (.005 mM), “−”; in the data set with Maize coleoptiles (.015 mM) it was “−”; in the data set on Maize coleoptiles (.05 mM), “−”. The “Injury or lack thereof” value with Maize coleoptiles (.15 mM) and in the data set on Maize coleoptiles (.5 mM) was “−” each time. Also, in the data set with Maize coleoptiles (AP1 less toxic than FB1), the “difference in toxicity between FB1 and AP1 to maize coleoptiles” value is reported as at least 30 fold.
For `CCCC[C@@H](C)[C@@H](OC(=O)C[C@@H](CC(=O)O)C(=O)O)[C@H](C[C@@H](C)C[C@H](O)CCCC[C@@H](O)C[C@H](O)[C@H](C)N)OC(=O)C[C@@H](CC(=O)O)C(=O)O` [FB1, fumonisin B1], the “concentration at which growth of BMS cells was inhibited” value in the data set on BMS cells is 400 nM. Further, the “Injury or lack thereof” value is given as “+” in the data set with Maize coleoptiles (1.5 mM); “−” in the data set on Maize coleoptiles (.0005 mM); “−” in the data set on Maize coleoptiles (.0015 mM); “−” in the data set with Maize coleoptiles (.005 mM); “+” in the data set on Maize coleoptiles (.05 mM); “+” in the data set with Maize coleoptiles (.15 mM). The “Injury or lack thereof” value in the data set on Maize coleoptiles (.5 mM) is reported as “+”. The “concentration giving significant inhibition of maize callus” value in the data set on maize callus is 1400 nM.
